Experiment [1] deals with T1, H-2Kd (Mus musculus, UniProt P01902). Description: Competitive inhibition of 125I-LLO. The format is binding. Conditions: for binding to H-2Kd (in words): peptide-binding inhibition experiments, Fig. 1.
Experiment [2] deals with T1, H-2Kd. Conditions: cited from earlier work.
In experiment [3] the test system is Meth A. Description: 4-h 51Cr release assay of vaccine-induced effectors, Meth A targets. Conditions: 239CM-induced CTL; separate experiment, data not shown. The format is cell-based, mouse.
Experiment [4] concerns CMS1. Description: 4-h 51Cr release assay of vaccine-induced effectors, CMS1 targets. The format is cell-based, mouse. The note with it: separate experiment, data not shown.
The conditions of experiment [5]: cited from earlier work.

T1 sequence (P01902 whole entry, looked up): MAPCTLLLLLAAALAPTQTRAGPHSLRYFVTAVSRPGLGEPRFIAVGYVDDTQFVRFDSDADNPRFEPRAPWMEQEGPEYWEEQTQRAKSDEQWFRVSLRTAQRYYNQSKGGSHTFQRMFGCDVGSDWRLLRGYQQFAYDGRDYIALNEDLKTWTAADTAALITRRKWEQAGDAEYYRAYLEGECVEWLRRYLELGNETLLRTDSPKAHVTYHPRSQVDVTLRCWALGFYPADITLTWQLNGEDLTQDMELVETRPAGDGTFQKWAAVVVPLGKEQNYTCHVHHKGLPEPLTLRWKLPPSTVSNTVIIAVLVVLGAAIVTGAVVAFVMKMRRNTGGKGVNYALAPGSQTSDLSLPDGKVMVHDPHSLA

On to “234CW: wild-type peptide p53(232-240) (KYMCNSSCM; UniProt P02340 232-240, looked up, fragment)”, for which the “binding to H-2Kd (in words)” value in experiment [1] is recorded as “capable of binding to H-2Ka”.
For the substance “GFKDGNEYI [LLO(Y2F), reference compound]”, the “relative binding to H-2Kd (in words)” value in experiment [1] (compared with other peptides in the same assay) was “comparable to that of the parent peptide”.
Turning to GYKDGNEYI [LLO], the “binding affinity to H-2Kd (in words)” value in experiment [2] is “high affinity”.
In the case of KYMCNSSFM [239CM], the “induction of CTL reactive against Meth A” value in experiment [3] is reported as “not Meth A”. Also, in experiment [4], the “induction of CTL reactive against CMS1” value is on record as “induced CTL reactive against CMS1”. Further, the “binding to H-2Kd (in words)” value in experiment [1] is on record as “capable of binding to H-2Ka”.
Turning to LFCQLAKTC [132CW], the “immunogenicity (in words)” value in experiment [5] is on record as “lack of immunogenicity”.
With LFFQLAKTC [132CM], the “immunogenicity (in words)” value in experiment [5] is recorded as “lack of immunogenicity”.
As to MTEVVRtkCP [168CW], the “immunogenicity (in words)” value in experiment [5] is recorded as “lack of immunogenicity”.
With MTGVVR.R.CP [168CM], the “immunogenicity (in words)” value in experiment [5] was “lack of immunogenicity”.

The values above are taken from paper PMC2192493 (The Journal of Experimental Medicine, 1996).
